Measurements taken from patent US20050180954A1, “Drug for treating bone disorders” (priority 1995, published 2005).

Legend:
[1] = tested on: osteoclast like cells from bone marrow cells of mice of C 57 BL/6 strain; test: Formation of osteoclast like cells from bone marrow cells of mice of C 57 BL/6 strain; format: cell-based, mouse; conditions: Example 2, C 57 BL/6 strain bone marrow cells
Procedure: The number of viable bone marrow cells was counted using tripam blue dye exclusion test and the bone marrow cells were diluted with α-MEM containing 10% JCS, 10^−8M Vit D3, 10^−7 M dexamethasone to a population density of 1.5×10^6 cells/ml, followed by placing the resulting suspension in each well in 24-well plates in an amount of 0.45 ml/well. To each well, 50 μl of the medium containing varying concentration of IFN was added to make the volume to 0.5 ml/well and culturing was begun. At every three days, 0.4 ml of the culture medium was removed from each well and 0.4 ml of fresh medium (the above-mentioned medium containing the respective concentration of IFN) was added. On Day 8 from the beginning of the culturing, the medium was removed and the cells were fixed with mixed solution of ethyl alcohol and diethyl ether (1:1) and the cells were stained with tartrate resistant acid phosphatase (TRAP), followed by counting TRAP positive multinuclear cells with a phase contrast microscope. […] The inhibition effect of IFNγ was stronger than that of IFNβ. That is, the inhibition concentration IC50 of IFNγ was not more than 0.1 units/ml, and that of IFNβ was 0.2 units/ml.
In place of mice of ddy strain, male mice of C 57 BL/6 of 7 weeks old were used. The mice were exanguinated to death under ether anesthesia and the femur and the tibia of hind legs were collected from each mouse. The connective tissues on the surfaces of the bones were carefully removed, and both ends of each bone were cut off with scissors. The bone marrow cells were suspended in α-MEM containing 10% JCS and the suspension was flushed out through a 25 G needle attached to a syringe to collect the suspension in a centrifugal tube. The collected suspension was washed by centrifugation in the same medium at 2000 rpm at 4° C. for 5 minutes. The precipitated cells were dispersed in the above-mentioned medium and the washing by centrifugation was repeated twice. Formation of osteoclast like cells was measured by the same method as in Example 1.

MC3T3-E1 cells = test: Proliferation of murine osteoblastic cells MC3T3-E1 (in vitro single administration); format: cell-based, mouse; conditions: 10,000 units/ml; cell count on Day 6
Procedure: Murine osteoblast like cells MC3T3-E1 originated from C 57 BL/6 mouse (Kodama et al., Jap. J. Oral Biol., 23, 899, 1982) were washed with PBS(−) and the cells were dissociated by incubation in PBS(−) containing 0.1% pronase (Actinase E, Kaken Pharmaceuticals Co.), followed by dispersing the cells in α-MEM containing 10% JCS and 50 μg/ml of L-ascorbic acid (ASA). The ability to promote proliferation of cells was evaluated as follows. That is, MC3T3-E1 cells were placed in each well in 24-well plates (Corning) in an amount of 5000 cells/well. Then each IFN dilution was added to each well in an amount of 0.1 ml/well, and the culturing was begun. On Day 2, the medium was removed and the each IFN dilution was added in an amount of 0.5 ml/well (total amount of liquid: 0.5 ml/well). On Day 6, the medium was removed and the cells were washed with PBS(−) and a mixed enzyme solution of 0.1% pronase/0.1% collagenase was added to each well in an amount of 200 μl/well, followed by allowing to react at 37° C. for 15 minutes. Then α-MEM containing 10% fetal calf serum (Gibco, hereinafter referred to as “FCS” for short) was added in an amount of 300 μl/well to disperse the cells therein and the number of the cells was counted with a Coulter counter.

[2] = tested on: ovariectomized mice of ddy strain; test: Osteoporosis model mice (ovariectomy): dry bone weight of femur; format: in vivo, mouse
Procedure: Female mice of ddy strain of 8 weeks old were divided into 5 groups and experiment was carried out. Bilateral ovariectomy was performed on the mice in 3 groups and sham operation alone was performed on the mice in 2 groups. Thereafter, the mice were raised with normal diet for 1 month, thereby making the state of osteoporosis in the ovariectomized groups. In this model, it is known that the mice become the state of osteoporosis 2 to 3 weeks after the ovariectomy (T. Hosaka et al., ANITEX, Vol. 5, 243, 1992; Miyaura, C. et al., J. Bone Mineral Res., 10, 1365, 1995). From the third weeks from the ovariectomy, murine IFN was subcutaneously administered (100 μl/head/time) once per day, totally 25 times. On Day 30 from the beginning of administration, under ether anesthesia, body weight was measured, blood was collected, and femur was collected and dry bone weight thereof was measured for each mouse.
Drying of femur was performed as follows. That is, femur was fixed with 2 ml of 70% ethanol per one taken out femur at room temperature for 24 hours and then the attached muscles and connective tissues were carefully removed with a forceps and surgical knife with replaceable blade. After immersing the femur in fresh 70% ethanol for 72 hours at room temperature, the femur was dried in a hot wind-generating incubator (Koukensha Engineering. Co., Tokyo) at 55° C. for 24 hours. The weight of the dried bone was measured with an electronic force balance (Mettler AE50, Metteler Instrumente AG, Switzerland). Murine IFN to be administered was diluted to the desired concentration with physiological saline. During the test, urine of mice was collected with metabolic cage (KN-645, Natsumeseisakusho, Tokyo) and frozen to store. To one group subjected to the sham operation, physiological saline (Otsuka Pharmaceutical Co.) was administered, and to another group subjected to the sham operation, murine IFNβ was administered at a dose of 10^5 units/head/time (diluted with physiological saline when use). […]

IC50 of formation inhibition of osteoclast like cells ([1]; Day 8): 0.1 units/ml
Substance: MuIFNβ: murine interferon β, Lot M-0034, prepared by Toray Industries, Inc. by genetic engineering technique
inhibition of formation of osteoclast like cells [1]: strongly inhibited formation of osteoclast like cells | inhibition of proliferation of MC3T3-E1 cells (MC3T3-E1 cells): did not inhibit the proliferation at all | bone volume (dry bone weight of femur) ([2]; ovariectomized mice, 10^3 units/head/time s.c.): exhibited prevention effect against further loss in the bone volume | bone volume (dry bone weight of femur) ([2]; ovariectomized mice, 10^5 units/head/time s.c. once per day, 25 times, Day 30): recovered the normal level of bone volume | bone volume (dry bone weight of femur) ([2]; sham operation mice, 10^5 units/head/time s.c.): significant increase in the bone volume was not observed
